Patent US6511975B1, “Spiropiperidine derivatives” (Sankyo Company, Limited, priority 1998, dated 2003)

How the values were obtained:
Set-up in all cases: species or system guinea pig
Conditions in all cases: stated in words only
[1] = molecular target: T1, NK1 receptor (Cavia porcellus, UniProt P30547); test: NK1 Receptor Binding Test ([3H]-substance P, crude pulmonary membrane specimens)
T1 construct: Crude pulmonary membrane specimens were prepared from the lungs of male Hartley guinea pigs; from tissue; host or cells: guinea pig lung (crude membranes)
T1 sequence (P30547 whole entry): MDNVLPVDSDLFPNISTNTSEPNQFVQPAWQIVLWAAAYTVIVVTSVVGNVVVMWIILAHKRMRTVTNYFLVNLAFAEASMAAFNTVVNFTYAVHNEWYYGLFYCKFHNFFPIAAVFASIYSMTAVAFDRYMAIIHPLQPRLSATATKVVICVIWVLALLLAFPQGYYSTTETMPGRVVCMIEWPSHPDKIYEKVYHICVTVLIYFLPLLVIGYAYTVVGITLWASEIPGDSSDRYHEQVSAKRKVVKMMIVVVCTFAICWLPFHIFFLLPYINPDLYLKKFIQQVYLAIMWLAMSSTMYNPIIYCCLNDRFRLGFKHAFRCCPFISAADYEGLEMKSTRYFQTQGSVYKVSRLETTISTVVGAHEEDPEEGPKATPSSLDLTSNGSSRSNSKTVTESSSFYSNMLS
Procedure: NK1 Receptor Binding Test
(a) Preparation of Crude Pulmonary Membrane Specimens
Crude pulmonary membrane specimens were prepared from the lungs of male Hartley guinea pigs. Namely, the animals were sacrificed by exsanguination from the abdominal aorta under chloroform anesthesia followed promptly by excision of lung and respiratory tract tissue.
After perfusing the excised lungs in buffer (1) (50 mM Tris-HCl, pH 7.4), the lungs were sliced into thin sections and then homogenized in a buffer (2) (buffer (1) containing 120 mM sodium chloride and 5 mM potassium chloride) using a Polytron.
(§1) The tissue mass was removed from the homogenate by passing through a Nylon mesh (50 μm) and separating by centrifugation (30,000×g, 30 minutes, 4° C.).
(§2) The pellet was re-suspended in an ice-cooled Buffer (3) (Buffer (1) containing 10 mM EDTA and 300 mM potassium chloride) and after allowing to stand undisturbed for 60 minutes at 4° C., the resulting suspension was centrifuged and washed twice (30,000×g, 15 minutes, 4° C.).
(§3) The crude membrane specimens were stored at −80° C. until the time of use.
(§4) (b) Receptor Binding Test […]
The filter containing the membrane component was transferred to a mini plastic vial containing 4 ml of Picoflow and radioactivity was measured with a liquid scintillation counter (Beckman, LCS3500).

[2] = molecular target: T2, NK2 receptor (Cavia porcellus, UniProt Q64077); test: NK2 Receptor Binding Test ([3H]-SR-48968, crude ileal membrane specimens)
T2 construct: Crude membrane specimens were prepared from the ileum of male Hartley guinea pigs; from tissue; host or cells: guinea pig ileum (crude membranes)
T2 sequence (Q64077 1-402): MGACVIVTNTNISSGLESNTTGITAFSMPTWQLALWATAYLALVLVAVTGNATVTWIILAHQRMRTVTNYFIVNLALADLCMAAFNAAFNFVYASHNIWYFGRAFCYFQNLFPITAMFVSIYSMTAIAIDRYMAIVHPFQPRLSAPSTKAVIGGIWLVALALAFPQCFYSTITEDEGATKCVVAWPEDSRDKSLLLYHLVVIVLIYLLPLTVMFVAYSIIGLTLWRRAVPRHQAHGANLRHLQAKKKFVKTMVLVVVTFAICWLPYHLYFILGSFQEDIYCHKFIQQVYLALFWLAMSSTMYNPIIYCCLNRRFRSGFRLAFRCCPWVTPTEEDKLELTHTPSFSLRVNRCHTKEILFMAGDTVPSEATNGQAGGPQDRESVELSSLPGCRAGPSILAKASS
Procedure: NK2 Receptor Binding Test
(a) Preparation of Crude Ileal Membrane Specimens
Crude membrane specimens were prepared from the ileum of male Hartley guinea pigs. Namely, the animals were sacrificed by exsanguination from the abdominal aorta under chloroform anesthesia followed promptly by excision of the ileum.
The excised ileum was separated into its contents, secretions and epithelium by scraping with a slide glass. After slicing into thin sections in buffer (1) (50 mM Tris-HCl, pH 7.4), it was homogenized in buffer (2) (buffer (1) containing 120 mM sodium chloride and 5 mM potassium chloride) using a Polytron.
as §1, §2, §3, §4
The filter containing the membrane component was transferred to a mini plastic vial containing 4 ml of Picoflow and radioactivity was measured with a liquid scintillation counter (Beckman. LSC3500).

[3] = molecular target: T3, NK3 receptor (Cavia porcellus, UniProt P30098); test: NK3 Receptor Binding Test ([3H]-senktide, crude cerebral membrane specimens)
T3 construct: Crude membrane specimens were prepared from the brain of male Hartley guinea pigs; from tissue; host or cells: guinea pig brain (crude membranes)
T3 sequence (P30098 1-440): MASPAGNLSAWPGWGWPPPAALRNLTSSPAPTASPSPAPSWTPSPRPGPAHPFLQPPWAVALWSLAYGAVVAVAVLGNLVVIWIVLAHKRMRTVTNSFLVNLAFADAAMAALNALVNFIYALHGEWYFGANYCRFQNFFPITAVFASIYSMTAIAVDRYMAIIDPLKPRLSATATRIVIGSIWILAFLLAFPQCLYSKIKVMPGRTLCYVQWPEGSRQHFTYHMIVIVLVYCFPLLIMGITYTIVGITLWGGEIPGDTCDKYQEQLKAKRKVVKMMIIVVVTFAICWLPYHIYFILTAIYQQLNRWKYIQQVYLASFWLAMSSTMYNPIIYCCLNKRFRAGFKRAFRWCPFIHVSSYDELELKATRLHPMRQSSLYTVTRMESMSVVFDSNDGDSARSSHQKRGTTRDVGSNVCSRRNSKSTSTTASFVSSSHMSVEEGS
Procedure: NK3 Receptor Binding Test
(a) Preparation of Crude Cerebral Membrane Specimens
Crude membrane specimens were prepared from the brain of male Hartley guinea pigs. Namely, the animals were sacrificed by exsanguination from the abdominal aorta under chloroform anesthesia After perfusing with Buffer (1) (50 mM Tris-HCl, pH 7.4) from the right ventricle, the brain was enucleated immediately. The excised brain was homogenized in buffer (2) (buffer (1) containing 120 mM sodium chloride and 5 mM potassium chloride) using a Polytron. Tissue mass was removed from the homogenate by passing through a Nylon mesh (50 μm) and separating by centrifugation (30,000×g, 30 minutes, 4° C.). […]
The filter containing the membrane component was transferred to a mini plastic vial containing 4 ml of Picoflow and radioactivity was measured with a liquid scintillation counter (Aloka, LSC 3500).
In order to determine the radioactivity due to non-specific binding of [^3H]-senktide (binding to sites other than the receptor, for example, the filter), the Experiment was carried out by adding an excess amount of senktide (final concentration: 10 μM), and the radioactivity was measured.
The inhibitory ratio of senktide-receptor binding due to a test compound was calculated by the following equation. […]
A: radioactivity due to nonspecific binding
B: radioactivity in the test without the addition of a test compound […]

COc1cc(C(=O)N2CCO[C@](CCN3CCC4(CC3)c3ccccc3CC4O)(c3ccc(Cl)c(Cl)c3)C2)cc(OC)c1OC (stereo partly drawn) [Example 1, 1-{2-[(2R)-(3,4-Dichlorophenyl)-4-(3,4,5-trimethoxybenzoyl)morpholin-2-yl]ethyl}spiro[(2-hydroxy)indane-1,4′-piperidine]]
superior to those of Compound A: antagonistic activity against NK1 receptor [1] | antagonistic activity against NK2 receptor [2] | antagonistic activity against NK3 receptor [3]

COc1cc(C(=O)N2CCO[C@](CCN3CCC4(CC3)CC(O)c3ccccc34)(c3ccc(Cl)c(Cl)c3)C2)cc(OC)c1OC (stereo partly drawn) [Example 2, 1-{2-[(2R)-(3,4-Dichlorophenyl)-4-(3,4,5-trimethoxybenzoyl)mopholin-2-yl]ethyl}spiro[(3-hydroxy)indane-1,4′-piperidine]]
superior to those of Compound A: antagonistic activity against NK1 receptor [1] | antagonistic activity against NK2 receptor [2] | antagonistic activity against NK3 receptor [3]
